US7537906B2, “Apoptosis inducer and method of screening for a substance inhibiting acylated homoserine lactone” (priority 2003, dated 2009)

Tests used:
IL-12 = details: mouse macrophage culture system; cited from earlier work
ERK = assay: MAP kinase activity by Western blot in CaCo-2 cells: phosphorylated ERK; assay type: cell-based, human
Experimental: (§1) A CaCo-2 carcinoma cell line of human colon cancer was purchased from American Type Culture Collection (ATCC), and cultured at 37° C. in the presence of 5% CO2 using a DMEM medium containing 10% FCS, 1% NEAA and 1% P/S (100 units/ml penicillin and 100 μg/ml streptomycin).
6×10^5 CaCo-2 cells were inoculated per dish using 6 cm dishes (NUNC), washed twice with phosphate buffered saline (PBS) (-), and then cultured in a serum-free DMEM medium containing 1% NEAA for 24 hours. Subsequently, at a final concentration of 100 μM, homoserine lactone hydrochloride and N-(3-oxododecanoyl)-L-homoserine lactone were each added, and then each solution was allowed to react for 10 minutes. Furthermore, purified acylated homoserine lactone used herein had been dissolved in DMSO in a concentration 400 times higher than the target final concentration, and then subjected to filter sterilization (φ 0.22 μm). As a control, DMSO with a final concentration of 0.25% was used. In addition, α-tubulin was used as an internal standard.
After reaction, the product was washed twice with cold PBS (-), and then frozen at −80° C. The cells were thawed on ice. 200 μl of a lysis buffer (50 mM HEPES, pH 7.5, 50 mM NaCl, 1 mM EDTA, 1.5 mM MgCl2, 1% Triton X-100, 10% glycerin, 10 mM sodium pyrophosphate, 1 mM Na3VO4, 100 mM NaF, 1 mM PMSF, 10 μg/ml aprotinin and 10 μg/ml leupeptin) was added to the cells, and then the cells were scraped off using a scraper. The cells were allowed to stand on ice for 20 minutes, and then centrifuged at 14000 rpm at 4° C. for 15 minutes, thereby collecting the supernatant. Concentration of the collected protein was measured, and then the protein equivalent to 50 μg was subjected to SDS-PAGE. After electrophoresis, the product was blotted on a PVDF membrane. When phosphorylated ERK, JNK, p38 and Akt were measured, blocking was carried out with 0.1% Tween 20 (TBS-T) containing 5% skim milk/Tris-buffered saline. As primary antibodies, an anti-phospho-p44/42 MAP kinase antibody, an anti-phospho-SAPK/JNK antibody, an anti-phospho-p38 MAP kinase antibody, and an anti-phospho-Akt ([…]) antibody were each used. As a secondary antibody, an HRP-labeled anti-rabbit IgG antibody was used. For the α-tubulin used as an internal standard, blocking was carried out with 5% bovine serum albumin (BSA)/TBS-T, and an anti-α-tubulin (Ab-1) antibody and an HRP-labeled anti-mouse IgG antibody were used as a primary antibody and a secondary antibody, respectively. For band detection, Renaissance™ Western Blot Chemiluminescence […] Reagent Plus (NEN) or Western Blotting Luminol Reagent (SANTA CRUZ BIOTECHNOLOGY) was used.
(§2) After cell culture, MAP kinase activity and Akt activity were analyzed by Western blot in a manner similar to that used in (1), except that N-(3-oxododecanoyl)-L-homoserine lactones in final concentrations of 0 μM (0.25% DMSO), 1 μM, 10 μM, 30 μM and 100 μM were each added and each solution was allowed to react for 10 minutes (FIG. 8).
After cell culture, N-(3-oxododecanoyl)-L-homoserine lactone with final concentrations of 30 μM and 100 μM were added. For each case, MAP kinase activity and Akt activity were measured by Western blot in a manner similar to that in (1), except for carrying out stimulation with acylated homoserine lactone in a short time course of 0, 5, 10, 30 and 60 minutes (FIG. 11), and in a long time course of 0, 10 minutes, 60 minutes, 2 hours, 4 hours, 6 hours, 8 hours and 10 hours (FIG. 12). In the case of stimulation at 30 μM, both ERK and p38 activities increased with a peak at 10 minutes. However, while ERK activity returned to the base level within 30 minutes, p38 activity lasted until 4 hours after stimulation. The inhibition of Akt activity in the case of stimulation at 30 μM peaked at 5 minutes and lasted until 60 minutes after stimulation, and returned to the base level within 2 hours. ERK activation took place with two steps in the case of stimulation at 100 μM. […]

Akt = Akt activity by Western blot in porcine vascular endothelial cells (PECs); assay type: cell-based; details: 100 μM, 10 minutes
Experimental: Porcine vascular endothelial cells (PECs) were cultured at 37° C. in the presence of 5% CO2 using a DMEM medium containing 10% FCS, 1% NEAA and 1% P/S (100 units/ml penicillin and 100 μg/ml streptomycin).
6×10^5 PECs were inoculated per dish using 6 cm dishes (NUNC), washed twice with phosphate buffered saline (PBS) (-), and then cultured for 24 hours in a serum-free DMEM medium containing 1% NEAA. Subsequently, at a final concentration of 100 μM, homoserine lactone hydrochloride, N-butyryl-L-homoserine lactone, N-(3-oxohexanoyl)-L-homoserine lactone and N-(3-oxododecanoyl)-L-homoserine lactone were each added, and then each solution was allowed to react for 10 minutes. Similarly to (1), the effect of acylated homoserine lactone on Akt activity in PECs were examined by Western blotting.

JNK = assay: MAP kinase activity by Western blot in CaCo-2 cells: phosphorylated JNK; assay type: cell-based, human; details: 10 minutes
Experimental: as §1
6×10^5 CaCo-2 cells were inoculated per dish using 6 cm dishes (NUNC), washed twice with phosphate buffered saline (PBS) (-), and then cultured in a serum-free DMEM medium containing 1% NEAA for 24 hours. Subsequently, at a final concentration of 100 μM, homoserine lactone hydrochloride and N-(3-oxododecanoyl)-L-homoserine lactone were each added, and then each solution was allowed to react for 10 minutes. […]
After reaction, the product was washed twice with cold PBS (-), and then frozen at −80° C. […] Concentration of the collected protein was measured, and then the protein equivalent to 50 μg was subjected to SDS-PAGE. […] When phosphorylated ERK, JNK, p38 and Akt were measured, blocking was carried out with 0.1% Tween 20 (TBS-T) containing 5% skim milk/Tris-buffered saline. […]
as §2

CaCo-2 cells = assay: Effects of kinase inhibitors on N-(3-oxododecanoyl)-L-homoserine lactone-dependent apoptosis, viability by Trypan blue staining; assay type: cell-based, human; details: 30 μM alone, 12 hours, control 96%
Experimental: 2×10^5 CaCo-2 cells were inoculated per 3.5 cm dish, cultured for 12 hours in the presence of 10% serum, washed twice with PBS (-), and then synchronously cultured in a serum-free medium for 24 hours. Pretreatment with various inhibitors (50 μM PD98059 and 20 μM SB203580) or DMSO was carried out for 30 minutes. Then 30 μM N-(3-oxododecanoyl)-L-homoserine lactone or DMSO was added, the cells were cultured for 12 hours, and then viability was measured by Trypan blue staining.

Structure (SMILES): CCCCCCCCCC(=O)CC(=O)N[C@H]1CCOC1=O [N-(3-oxododecanoyl)-L-homoserine lactone]
- IL-12 production (IL-12): promotes
- ERK activity increase (ERK; 10 μM, 10 minutes): 1.5 times
- ERK activity increase (ERK; 30 μM, 10 minutes): 7.7 times
- ERK activity increase (ERK; 100 μM, 10 minutes): 9.8 times
- activation of ERK (ERK; 100 μM, 10 minutes): promoted
- concentration at which levels of phosphorylated ERK significantly increased (ERK; 10 minutes): ≥ 10 µM
- time for ERK activity to return to the base level (ERK; stimulation at 30 μM): ≤ 30 min
- time of peak ERK activity (ERK; stimulation at 30 μM): 10 min
- time at which ERK activity began to increase, second step (ERK; stimulation at 100 μM): 4 h
- time for ERK activity to return to the base level, first step (ERK; stimulation at 100 μM): ≤ 2 h
- time for ERK activity to return to the base level, second step (ERK; stimulation at 100 μM): ≤ 10 h
- time of peak ERK activity, first step (ERK; stimulation at 100 μM): 5 min
- time of peak ERK activity, second step (ERK; stimulation at 100 μM): 8 h
- Akt activity in PECs (Akt): significantly decreases
- JNK activity, concentration dependence (JNK; 0-100 μM): no concentration-dependent significant difference
- activation of JNK (JNK; 100 μM): promoted
- viability (CaCo-2 cells): 49%
